Data on eleven compounds can be found in patent publication US20160039880A1 (priority 2012, published 2016).

Data set [1] addresses T1, Human recombinant cyclophilin A (Cyp A) (Homo sapiens, UniProt P62937). The data set is described as follows: Protease-free PPIase assay.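 Also: cis to trans isomerization of SUC-AAPF-pNA by 2 nM enzyme, read as absorbance at 330 nm over 300 s at 10 °C, catalytic rate corrected for uncatalyzed background.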
The nature of data set [2]: Water Solubility Assay (measured in pH 7.8 buffer).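 Also: precipitation onset detected as rise in absorbance at 650 nm across increasing concentrations, after shaking for 18 h, blank wells receiving DMSO only.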 Format: physicochemical.
The target of data set [3] is T2, Calcineurin (Homo sapiens, UniProt P62937+P63098+Q08209). The data set is described as follows: Calcineurin Phosphatase (CaN) Assay with Cyp A (+CypA). The settings on record: for pIC50: read-out: Calcineurin Phosphatase (CaN) Assay (+CypA) IC50, in the presence of Cyp A.
T2 sequence (P63098 whole entry, other chains not shown): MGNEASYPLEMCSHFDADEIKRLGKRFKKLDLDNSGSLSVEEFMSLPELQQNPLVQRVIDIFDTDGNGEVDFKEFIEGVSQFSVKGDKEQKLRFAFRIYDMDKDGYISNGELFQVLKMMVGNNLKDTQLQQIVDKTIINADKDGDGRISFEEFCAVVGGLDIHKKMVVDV
T2 sequence (P62937 whole entry, other chains not shown): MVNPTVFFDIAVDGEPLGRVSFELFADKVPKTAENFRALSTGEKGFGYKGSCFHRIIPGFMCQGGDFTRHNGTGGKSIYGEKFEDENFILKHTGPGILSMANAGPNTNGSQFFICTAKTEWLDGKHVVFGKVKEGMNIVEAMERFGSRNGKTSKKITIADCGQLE
The target of data set [4] is T1, Human recombinant cyclophilin A (Cyp A).
Data set [5] has as its target T2, Calcineurin.
Setting [6] is: read-out: Protease-free PPIase Assay Ki, cyclophilin A, 10 °C.
Setting [7] is: 35 mM HEPES pH 7.8, 1% DMSO, 25 °C, 18 h, read-out: Water Solubility Assay, concentration at which the compound remains in solution.

Each structure is given as a SMILES string. pIC50, pKi: −log10 of the molar value. In brackets after ≈: the same amount, converted by molar mass. Where two headings read alike, the source gives them in different places. Starred links: 1 amine or outer side, 2 acyl side, 3 side chain; linkers in the order of their positions; H or OH if unused. Non-standard residues stand in square brackets, D forms with d. Residues, ends and D or L forms follow the SMILES beside them. X2 = CC(CCN1CCOCC1)C(O)C(C(=O)[*:2])N(C)[*:1]; X1 = CCN(C(C(=O)[*:2])C(C)C)[*:1]; NMeL = CN[CH](CC(C)C)C(=O)O; NMeV = CN[CH](C(=O)O)C(C)C; NMeA = CN[CH](C)C(=O)O; Abu = CC[CH](N)C(=O)O

T1 sequence (P62937 whole entry): as the sequence (P62937 whole entry, other chains not shown) above

One may read the pKi as the Ki on a negative log10 scale, so that one unit is a factor of ten. Broadly, the pIC50 is −log10 of the IC50, conventionally taken in molar units. On to `CC[C@@H]1NC(=O)[C@H]([C@H](O)[C@H](C)CCCC(=O)N2C[C@H]3CN(C)C[C@H]3C2)N(C)C(=O)[C@H](C(C)C)N(C)C(=O)[C@H](CC(C)C)N(C)C(=O)[C@H](CC(C)C)N(C)C(=O)[C@@H](C)NC(=O)[C@H](C)NC(=O)[C@H](CC(C)C)N(C)C(=O)[C@H](C(C)C)NC(=O)[C@H](CC(C)C)N(C)C(=O)[C@@H](C)N(C)C1=O` (relative stereo) [Compound ZZ, [(5R,6R,7S)-6-hydroxy-5-methyl-7-(methylamino)-1-(N-(3aR*,6aS*)-2-methyloctahydropyrrolo[3,4-c]pyrrolo)-1-oxo-octanoic acid]1[(R)-methyl-Sar]3 cyclosporin A], for which the pKi in data set [1] (setting [6]) was 8.59. Also, in data set [2] (setting [7]), the solubility at 18 h is recorded as greater than 100 µM. Also, in data set [3] (1:1 complex with inhibitor), the pIC50 was less than 5.00.
Consider `CCC1NC(=O)C(C(O)C(C)CCN2CCOCC2)N(C)C(=O)C(C(C)C)N(C)C(=O)C(CC(C)C)N(C)C(=O)C(CC(C)C)N(C)C(=O)C(C)NC(=O)C(C)NC(=O)C(CC(C)C)N(C)C(=O)C(C(C)C)NC(=O)C(CC(C)C)N(C)C(=O)C(CC)N(C)C1=O` [Compound AB, [(3R,4R,5S)-4-hydroxy-3-methyl-5-(methylamino)-1-N-morpholino-hexanoic acid]^1[(R)-ethyl-Sar]^3 cyclosporin A], for which, in data set [1] (setting [6]), the pKi was 8.25. Moreover, the solubility at 18 h in data set [2] (setting [7]) is recorded as greater than 100 µM. The pIC50 in data set [3] (1:1 complex with inhibitor) was less than 5.00.
For `CC[C@H]1NC(=O)[C@@H]([C@H](O)[C@H](C)CCN2CCOCC2)N(C)C(=O)[C@@H](C(C)C)N(C)C(=O)[C@@H](CC(C)C)N(C)C(=O)[C@@H](CC(C)C)N(C)C(=O)[C@H](C)NC(=O)[C@@H](C)NC(=O)[C@@H](CC(C)C)N(C)C(=O)[C@@H](C(C)C)NC(=O)[C@H](CC(C)C)N(C)C(=O)[C@@H](CSCCN(CC)CC)N(C)C1=O` [Compound AC, [(3R,4R,5S)-4-Hydroxy-3-methyl-5-(methylamino)-1-N-morpholino-hexanoic acid]^1[(S)-2-diethylaminoethylthiomethyl-Sar]^3 cyclosporin A] the same measures were 8.12, greater than 100 µM and less than 5.00.
`CCC1NC(=O)C(C(O)C(C)CCN2CCOCC2)N(C)C(=O)C(C(C)C)N(C)C(=O)C(CC(C)C)N(C)C(=O)C(CC(C)C)N(C)C(=O)C(C)NC(=O)C(C)NC(=O)C(CC(C)C)N(C)C(=O)C(C(C)C)NC(=O)C(C(C)C)N(CC)C(=O)C(C)N(C)C1=O` [Compound EJ, [(3R,4R,5S)-4-Hydroxy-3-methyl-1-(morpholin-4-yl)-hexanoic acid]^1[(R)-methyl-Sar]^3[Ethyl-Val]^4 cyclosporin A] (cyclo([X1]V[NMeL]AA[NMeL][NMeL][NMeV][X2][Abu][NMeA]); configuration not given here): the pKi in data set [1] (read-out: Protease-free PPIase Assay Ki, Cyclophilin A (Cyp A) inhibitory activity) is 8.05. Besides, the solubility at 18 h in data set [2] (pH 7.8 buffer, read-out: Water Solubility Assay) is greater than 100 µM. The pIC50 in data set [3] was less than 5.00.
As for `CC[C@H]1NC(=O)[C@@H]([C@H](O)[C@H](C)CCN2CC(F)(F)OC(F)(F)C2)N(C)C(=O)[C@@H](C(C)C)N(C)C(=O)[C@@H](CC(C)C)N(C)C(=O)[C@@H](CC(C)C)N(C)C(=O)[C@H](C)NC(=O)[C@@H](C)NC(=O)[C@@H](CC(C)C)N(C)C(=O)[C@@H](C(C)C)NC(=O)[C@H](CC(C)C)N(C)C(=O)[C@@H](C)N(C)C1=O` [Compound EK, [(3R,4R,5S)-4-Hydroxy-3-methyl-5-(methylamino)-1-(2,2,6,6-tetrafluoro-morpholin-4-yl)-hexanoic acid]^1[(R)-methyl-Sar]^3 cyclosporin A], the “Water Solubility Assay” value in data set [2] (pH 7.8) was 25 to 50 µM. The negative logarithm of the Ki (pKi) in data set [4] was 7.92. The immunosuppressive potential result in data set [5] is “more immunosuppressive potential than others”.
With `CC[C@H]1NC(=O)[C@@H]([C@H](O)[C@H](C)CCN2CC(F)(F)OC(F)(F)C2)N(C)C(=O)[C@@H](C(C)C)N(C)C(=O)[C@@H](CC(C)C)N(C)C(=O)[C@@H](CC(C)C)N(C)C(=O)[C@H](C)NC(=O)[C@@H](C)NC(=O)[C@@H](CC(C)C)N(C)C(=O)[C@@H](C(C)C)NC(=O)[C@H](CC(C)C)N(C)C(=O)[C@@H](CO)N(C)C1=O` [Compound EO], the pKi in data set [1] is 7.89. In addition, the solubility at 18 h in data set [2] (35 mM HEPES buffer pH 7.8, 25 °C, aqueous buffer, kinetic from dmso stock, pH 7.8 buffer, read-out: Water Solubility Assay) fell in the range of 10 to 25 µM (≈ 13.6 to 34.1 µg/mL). Besides, in data set [3] (in words, as measured by the MLR and CaN assays), the immunosuppressive potential entry is recorded as “more immunosuppressive potential than others”.
As to `CC[C@H]1NC(=O)[C@@H]([C@H](O)[C@H](C)CCN2CCC(F)(F)C2)N(C)C(=O)[C@@H](C(C)C)N(C)C(=O)[C@@H](CC(C)C)N(C)C(=O)[C@@H](CC(C)C)N(C)C(=O)[C@H](C)NC(=O)[C@@H](C)NC(=O)[C@@H](CC(C)C)N(C)C(=O)[C@@H](C(C)C)NC(=O)[C@H](CC(C)C)N(C)C(=O)[C@@H](CO)N(C)C1=O` [Compound EP], the pKi in data set [1] was 8.47. Moreover, the solubility at 18 h in data set [2] (25 °C, pH 7.8, aqueous buffer, kinetic from dmso stock) was in the range of 50 to 75 µM (≈ 65.6 to 98.4 µg/mL). In addition, in data set [5], the immunosuppressive potential result is given as “more immunosuppressive potential than others”.
As to `CC[C@H]1NC(=O)[C@@H]([C@H](O)[C@H](C)CCCCCN2CCOCC2)N(C)C(=O)[C@@H](C(C)C)N(C)C(=O)[C@@H](CC(C)C)N(C)C(=O)[C@@H](CC(C)C)N(C)C(=O)[C@H](C)NC(=O)[C@@H](C)NC(=O)[C@@H](CC(C)C)N(C)C(=O)[C@@H](C(C)C)NC(=O)[C@H](CC(C)C)N(C)C(=O)[C@@H](C)N(C)C1=O` [Compound G, [(6R,7R,8S)-7-hydroxy-6-methyl-8-(methylamino)-1-N-morpholino-nonanoic acid]^1[(R)-methyl-Sar]^3 cyclosporin A], in data set [1] (setting [6]), the pKi is 8.21. In data set [2] (setting [7]), the solubility at 18 h is greater than 100 µM. In addition, the pIC50 in data set [3] (1:1 complex with inhibitor) was less than 5.00.
For `CC[C@H]1NC(=O)[C@@H]([C@H](O)[C@H](C)CCCC(=O)N2CCOCC2)N(C)C(=O)[C@@H](C(C)C)N(C)C(=O)[C@@H](CC(C)C)N(C)C(=O)[C@@H](CC(C)C)N(C)C(=O)[C@H](C)NC(=O)[C@@H](C)NC(=O)[C@@H](CC(C)C)N(C)C(=O)[C@@H](C(C)C)NC(=O)[C@H](CC(C)C)N(C)C(=O)[C@@H](C)N(C)C1=O` [Compound H, [(5R,6R,7S)-6-hydroxy-5-methyl-7-(methylamino)-1-N-morpholino-1-oxo-octanoic acid]^1[(R)-methyl-Sar]^3 cyclosporin A] the same measures were 8.41, greater than 100 µM and less than 5.00.
For `CC[C@H]1NC(=O)[C@@H]([C@H](O)[C@H](C)CCN2CCOCC2)N(C)C(=O)[C@@H](C(C)C)N(C)C(=O)[C@@H](CC(C)C)N(C)C(=O)[C@@H](CC(C)C)N(C)C(=O)[C@H](C)NC(=O)[C@@H](C)NC(=O)[C@@H](CC(C)C)N(C)C(=O)[C@@H](C(C)C)NC(=O)[C@H](CC(C)C)N(C)C(=O)[C@@H](COCCN(CC)CC)N(C)C1=O` [Compound S, [(3R,4R,5S)-4-Hydroxy-3-methyl-5-(methylamino)-1-N-morpholino-hexanoic acid]^1[(R)-2-diethylaminoethyloxymethyl-Sar]^3 cyclosporin A] the same measures were 8.00, greater than 100 µM and less than 5.00.
For `CC[C@H]1NC(=O)[C@@H]([C@H](O)[C@H](C)CCN2CCCOCC2)N(C)C(=O)[C@@H](C(C)C)N(C)C(=O)[C@@H](CC(C)C)N(C)C(=O)[C@@H](CC(C)C)N(C)C(=O)[C@H](C)NC(=O)[C@@H](C)NC(=O)[C@@H](CC(C)C)N(C)C(=O)[C@@H](C(C)C)NC(=O)[C@H](CC(C)C)N(C)C(=O)[C@@H](C)N(C)C1=O` [Compound X] the same measures were 8.31, greater than 100 µM and less than 5.00.
